From ChEMBL document CHEMBL1201862, “PubChem BioAssay data set” (2004)
Activity calls are given as the source filed them.

Assays:
[1] = target: T1, Eukaryotic translation initiation factor 2-alpha kinase 3 (Homo sapiens, UniProt Q9NZJ5); experiment: Counterscreen assay for PERK inhibitors: Dose response cell-based high throughput screening assay to measure inhibition of PERK at 6 hours. [Related pubchem assays: 1522, 1416 ]; assay type: functional
T1 sequence (Q9NZJ5 whole entry): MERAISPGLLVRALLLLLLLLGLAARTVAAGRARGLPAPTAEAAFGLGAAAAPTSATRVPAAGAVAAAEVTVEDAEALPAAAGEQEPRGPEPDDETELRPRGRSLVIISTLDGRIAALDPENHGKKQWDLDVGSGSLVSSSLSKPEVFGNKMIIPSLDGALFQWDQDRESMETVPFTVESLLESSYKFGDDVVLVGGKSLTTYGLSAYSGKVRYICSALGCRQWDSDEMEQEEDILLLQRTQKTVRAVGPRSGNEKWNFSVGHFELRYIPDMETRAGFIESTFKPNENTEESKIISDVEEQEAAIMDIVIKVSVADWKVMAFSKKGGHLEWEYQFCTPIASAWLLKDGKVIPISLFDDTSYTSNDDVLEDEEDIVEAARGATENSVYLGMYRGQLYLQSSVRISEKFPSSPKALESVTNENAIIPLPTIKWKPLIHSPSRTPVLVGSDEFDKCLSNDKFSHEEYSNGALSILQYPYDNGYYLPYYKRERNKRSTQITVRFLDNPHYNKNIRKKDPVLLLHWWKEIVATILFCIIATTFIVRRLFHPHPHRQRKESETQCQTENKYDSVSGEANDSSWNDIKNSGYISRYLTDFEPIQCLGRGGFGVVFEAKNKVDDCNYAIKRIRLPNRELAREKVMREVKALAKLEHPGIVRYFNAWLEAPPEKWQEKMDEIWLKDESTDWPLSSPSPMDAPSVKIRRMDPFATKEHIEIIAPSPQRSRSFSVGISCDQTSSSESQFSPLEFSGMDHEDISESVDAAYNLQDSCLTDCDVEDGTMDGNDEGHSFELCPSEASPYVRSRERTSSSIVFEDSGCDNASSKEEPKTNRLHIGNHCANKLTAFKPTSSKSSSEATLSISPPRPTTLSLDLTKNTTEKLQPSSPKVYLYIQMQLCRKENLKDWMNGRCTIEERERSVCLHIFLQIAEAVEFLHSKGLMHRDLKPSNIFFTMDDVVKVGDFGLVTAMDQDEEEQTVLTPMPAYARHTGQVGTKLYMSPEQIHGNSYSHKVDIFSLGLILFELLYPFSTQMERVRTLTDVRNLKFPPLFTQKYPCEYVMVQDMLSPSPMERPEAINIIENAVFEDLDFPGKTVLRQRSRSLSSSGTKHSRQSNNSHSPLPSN

[2] = target: T1, Eukaryotic translation initiation factor 2-alpha kinase 3; experiment: Dose response cell-based high-throughput screening assay to measure PERK inhibition. [Related pubchem assays: 1416 ]; assay type: functional
[3] = target: Lysosomal acid glucosylceramidase (Homo sapiens, UniProt P04062); experiment: Dose response cell-based high throughput screening assay to identify enhancers of beta-glucosidase activity. [Related pubchem assays: 784 ]; assay type: functional
Aspartyl aminopeptidase = target: T2, Aspartyl aminopeptidase (Plasmodium falciparum 3D7, UniProt Q8I2J3)
T2 sequence (Q8I2J3 whole entry): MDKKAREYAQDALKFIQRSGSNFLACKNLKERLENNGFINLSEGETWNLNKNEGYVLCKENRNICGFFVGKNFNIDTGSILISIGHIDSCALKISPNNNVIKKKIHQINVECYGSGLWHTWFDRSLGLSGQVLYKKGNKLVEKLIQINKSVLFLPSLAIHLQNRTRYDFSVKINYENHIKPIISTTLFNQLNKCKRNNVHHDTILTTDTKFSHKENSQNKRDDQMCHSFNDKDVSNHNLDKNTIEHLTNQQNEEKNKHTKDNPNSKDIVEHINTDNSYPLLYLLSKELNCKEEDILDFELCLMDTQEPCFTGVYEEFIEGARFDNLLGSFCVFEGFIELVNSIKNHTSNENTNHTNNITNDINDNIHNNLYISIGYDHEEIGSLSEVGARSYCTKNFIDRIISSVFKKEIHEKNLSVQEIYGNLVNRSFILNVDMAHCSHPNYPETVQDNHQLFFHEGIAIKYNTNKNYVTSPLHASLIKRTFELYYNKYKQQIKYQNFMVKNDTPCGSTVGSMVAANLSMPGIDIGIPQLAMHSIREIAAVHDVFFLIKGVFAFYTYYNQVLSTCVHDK

Procathepsin L = Procathepsin L (Homo sapiens, UniProt P07711)
Cytochrome P450 2C9 = Cytochrome P450 2C9 (Homo sapiens, UniProt P11712); details: Potency
[4] = Luminescence Cell-Based Dose Response HTS to Identify Inhibitors of 5'UTR Stem-Loop Driven Prion Protein mRNA Translation in H4 Neuroglioblastoma Cells. [Related pubchem assays: 1827 (Project Summary), 1813 (Primary HTS)]; assay type: functional
[5] = inhibitors of SNCA 5'UTR-driven reporter translation, confirmation, H4 neuroglioma cells, luminescence (AID 1988); assay type: functional, cell-based
[6] = luciferase reporter signal reduction – luminescence, H4-C neuroglioblastoma cells, dose response (AID 2458); assay type: functional, cell-based;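 also: H4 neuroglioblastoma cells stably carrying a luciferase reporter gene fusion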
[7] = cytotoxicity in HEK-293T cells, dose response, cytotoxicity control for TCR NF-kB inhibitor project, luminescence, T-cell screen hits (AID 489026); assay type: functional, cell-based;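 also: cells exposed to compound about 14 hours before the viability readout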
cells = assay type: functional, cell-based
[8] = inhibitors of SNCA 5'UTR-driven translation, confirmation, luminescence, H4 neuroglioblastoma cells, dose confirmation (AID 2454); assay type: functional, cell-based;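 also: H4 neuroglioblastoma cells carrying an alpha-synuclein 5'UTR luciferase reporter; potency for inhibition of the luciferase signal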
[9] = inhibitors of firefly luciferase expression or activity, dose response, H4 neuroglioma cells, luminescence (AID 1990); assay type: functional, cell-based
[10] = target: T3, Histone-lysine N-methyltransferase NSD2 (Homo sapiens, UniProt O96028); assay type: biochemical
T3 sequence (O96028 whole entry): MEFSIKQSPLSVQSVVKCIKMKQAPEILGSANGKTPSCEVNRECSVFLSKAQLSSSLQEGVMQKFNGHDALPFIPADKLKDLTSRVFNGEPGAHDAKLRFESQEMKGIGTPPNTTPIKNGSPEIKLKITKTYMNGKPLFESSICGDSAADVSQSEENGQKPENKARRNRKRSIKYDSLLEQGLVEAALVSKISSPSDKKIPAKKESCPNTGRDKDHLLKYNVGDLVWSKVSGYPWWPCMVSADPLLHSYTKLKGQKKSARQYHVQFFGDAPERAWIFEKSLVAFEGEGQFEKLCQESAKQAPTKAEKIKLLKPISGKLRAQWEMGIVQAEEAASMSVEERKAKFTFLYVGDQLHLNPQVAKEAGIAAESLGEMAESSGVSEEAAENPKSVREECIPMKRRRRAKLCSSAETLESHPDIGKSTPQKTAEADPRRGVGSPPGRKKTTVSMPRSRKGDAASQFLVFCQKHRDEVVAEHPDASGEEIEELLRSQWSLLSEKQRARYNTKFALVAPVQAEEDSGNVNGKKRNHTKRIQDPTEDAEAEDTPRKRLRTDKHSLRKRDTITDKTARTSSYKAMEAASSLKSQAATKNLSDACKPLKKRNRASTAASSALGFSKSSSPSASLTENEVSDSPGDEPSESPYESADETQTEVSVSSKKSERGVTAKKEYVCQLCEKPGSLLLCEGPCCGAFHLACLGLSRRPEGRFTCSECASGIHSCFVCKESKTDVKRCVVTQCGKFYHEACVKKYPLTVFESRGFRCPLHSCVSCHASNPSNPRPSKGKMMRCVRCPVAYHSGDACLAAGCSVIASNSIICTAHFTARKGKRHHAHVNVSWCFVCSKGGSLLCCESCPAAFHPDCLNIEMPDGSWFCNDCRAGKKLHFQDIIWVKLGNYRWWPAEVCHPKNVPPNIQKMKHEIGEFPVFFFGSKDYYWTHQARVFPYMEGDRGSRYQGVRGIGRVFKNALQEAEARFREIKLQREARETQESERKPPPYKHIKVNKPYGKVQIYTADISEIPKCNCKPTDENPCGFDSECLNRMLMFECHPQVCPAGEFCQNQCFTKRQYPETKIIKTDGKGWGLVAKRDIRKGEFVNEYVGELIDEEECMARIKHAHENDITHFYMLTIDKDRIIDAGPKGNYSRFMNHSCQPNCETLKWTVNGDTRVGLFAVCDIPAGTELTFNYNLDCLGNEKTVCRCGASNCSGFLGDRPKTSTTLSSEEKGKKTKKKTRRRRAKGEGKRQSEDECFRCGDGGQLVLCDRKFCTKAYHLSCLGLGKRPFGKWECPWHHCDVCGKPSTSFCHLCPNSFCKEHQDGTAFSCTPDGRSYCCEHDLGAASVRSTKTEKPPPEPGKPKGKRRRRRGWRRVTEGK

Large T antigen = Large T antigen (Simian virus 40, UniProt P03070); assay type: functional, Betapolyomavirus macacae;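 also: Confirmatory-stage PubChem screen for compounds that inhibit SV40 T antigen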
[11] = target: T4, Calpain-2 catalytic subunit (Sus scrofa, UniProt P43367); experiment: pig calpain II inhibitor potency, dose response, biochemical, fluorogenic peptide substrate (AID 1420); assay type: functional
T4 sequence (P43367 whole entry): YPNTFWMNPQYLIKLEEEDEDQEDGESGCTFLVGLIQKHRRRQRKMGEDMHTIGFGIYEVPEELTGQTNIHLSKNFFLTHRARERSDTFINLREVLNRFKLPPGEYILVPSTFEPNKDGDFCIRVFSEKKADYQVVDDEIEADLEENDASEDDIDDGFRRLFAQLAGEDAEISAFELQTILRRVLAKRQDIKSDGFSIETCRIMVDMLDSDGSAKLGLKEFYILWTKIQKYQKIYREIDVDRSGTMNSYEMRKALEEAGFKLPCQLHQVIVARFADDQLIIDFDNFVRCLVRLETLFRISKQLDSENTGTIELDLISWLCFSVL

[12] = Counterscreen for IDE inhibitors: Luminescence-based cell-based high throughput dose response assay to identify compounds that are cytotoxic to HEK cells. [Related pubchem assays: 434962 (Primary screen (IDE inhibitors in singlicate)), 449730 (Counterscreen (Cytotoxicity in triplicate)), 435028 (Confirmation (IDE inhibitors in triplicate)) …; assay type: functional; details: HEK293
Insulin-degrading enzyme = target: T5, Insulin-degrading enzyme (Homo sapiens, UniProt P14735); experiment: Dose Response: Fluorescence polarization-based cell-based high throughput dose response assay for inhibitors of insulin-degrading enzyme (IDE). [Related pubchem assays: 434962 (Primary screen (IDE inhibitors in singlicate)), 449730 (Counterscreen (Cytotoxicity in triplicate)), 435028 (Confirmation (IDE inhibitors in triplicate)), 434984 (Summary …; assay type: functional
T5 sequence (P14735 whole entry): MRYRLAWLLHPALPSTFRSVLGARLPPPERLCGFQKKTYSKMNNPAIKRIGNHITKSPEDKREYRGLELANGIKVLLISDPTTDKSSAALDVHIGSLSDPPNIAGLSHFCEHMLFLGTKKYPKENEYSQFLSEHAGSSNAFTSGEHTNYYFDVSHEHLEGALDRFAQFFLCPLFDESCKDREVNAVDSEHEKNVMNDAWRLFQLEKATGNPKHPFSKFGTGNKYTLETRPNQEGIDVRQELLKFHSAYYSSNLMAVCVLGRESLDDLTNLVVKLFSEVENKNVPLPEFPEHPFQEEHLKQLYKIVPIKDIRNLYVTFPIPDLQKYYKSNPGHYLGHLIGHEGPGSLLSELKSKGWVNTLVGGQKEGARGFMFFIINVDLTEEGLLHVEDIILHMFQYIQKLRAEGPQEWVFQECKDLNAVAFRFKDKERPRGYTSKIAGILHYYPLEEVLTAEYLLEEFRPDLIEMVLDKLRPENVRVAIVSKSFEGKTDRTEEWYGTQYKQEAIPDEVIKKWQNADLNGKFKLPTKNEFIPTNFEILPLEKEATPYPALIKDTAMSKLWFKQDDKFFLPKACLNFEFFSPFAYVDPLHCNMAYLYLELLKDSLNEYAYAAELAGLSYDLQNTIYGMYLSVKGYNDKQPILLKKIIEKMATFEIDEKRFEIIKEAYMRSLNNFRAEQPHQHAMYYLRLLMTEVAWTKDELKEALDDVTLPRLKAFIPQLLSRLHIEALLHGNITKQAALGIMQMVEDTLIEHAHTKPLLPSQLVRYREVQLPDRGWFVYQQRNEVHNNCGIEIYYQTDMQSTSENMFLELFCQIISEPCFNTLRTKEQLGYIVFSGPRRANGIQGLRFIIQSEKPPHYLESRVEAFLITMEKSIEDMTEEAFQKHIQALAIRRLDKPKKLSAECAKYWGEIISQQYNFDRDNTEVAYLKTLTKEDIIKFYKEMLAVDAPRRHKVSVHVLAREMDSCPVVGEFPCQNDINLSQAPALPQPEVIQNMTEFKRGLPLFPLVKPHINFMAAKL

Chain of Lysosomal acid glucosylceramidase (P04062 whole entry): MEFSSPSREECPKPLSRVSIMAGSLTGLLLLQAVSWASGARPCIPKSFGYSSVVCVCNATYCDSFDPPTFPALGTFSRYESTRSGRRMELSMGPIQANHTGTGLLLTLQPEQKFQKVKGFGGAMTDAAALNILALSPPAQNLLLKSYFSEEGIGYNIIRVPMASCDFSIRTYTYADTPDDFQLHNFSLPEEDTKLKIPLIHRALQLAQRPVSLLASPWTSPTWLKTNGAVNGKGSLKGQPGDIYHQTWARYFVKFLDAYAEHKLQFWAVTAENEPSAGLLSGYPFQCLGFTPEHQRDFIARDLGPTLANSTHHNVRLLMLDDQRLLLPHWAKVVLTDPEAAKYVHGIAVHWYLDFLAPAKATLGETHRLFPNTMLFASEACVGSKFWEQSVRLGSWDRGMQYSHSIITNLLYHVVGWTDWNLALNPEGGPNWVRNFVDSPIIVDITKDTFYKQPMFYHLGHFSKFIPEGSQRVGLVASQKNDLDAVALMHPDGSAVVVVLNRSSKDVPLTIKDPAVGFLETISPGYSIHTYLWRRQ
Chain of Cytochrome P450 2C9 (P11712 whole entry): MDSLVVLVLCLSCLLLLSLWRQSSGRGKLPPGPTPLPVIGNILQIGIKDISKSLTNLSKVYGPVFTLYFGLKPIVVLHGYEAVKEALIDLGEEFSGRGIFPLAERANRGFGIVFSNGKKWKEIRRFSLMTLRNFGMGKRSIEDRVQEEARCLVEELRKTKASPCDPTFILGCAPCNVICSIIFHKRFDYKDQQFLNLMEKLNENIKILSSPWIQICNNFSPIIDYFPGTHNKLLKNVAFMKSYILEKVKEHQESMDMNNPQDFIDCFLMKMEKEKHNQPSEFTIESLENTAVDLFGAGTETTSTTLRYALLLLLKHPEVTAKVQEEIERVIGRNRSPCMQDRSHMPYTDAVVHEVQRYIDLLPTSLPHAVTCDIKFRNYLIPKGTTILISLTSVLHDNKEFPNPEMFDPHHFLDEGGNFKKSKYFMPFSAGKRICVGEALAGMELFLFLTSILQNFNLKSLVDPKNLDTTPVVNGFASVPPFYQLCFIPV
Chain of Procathepsin L (P07711 whole entry): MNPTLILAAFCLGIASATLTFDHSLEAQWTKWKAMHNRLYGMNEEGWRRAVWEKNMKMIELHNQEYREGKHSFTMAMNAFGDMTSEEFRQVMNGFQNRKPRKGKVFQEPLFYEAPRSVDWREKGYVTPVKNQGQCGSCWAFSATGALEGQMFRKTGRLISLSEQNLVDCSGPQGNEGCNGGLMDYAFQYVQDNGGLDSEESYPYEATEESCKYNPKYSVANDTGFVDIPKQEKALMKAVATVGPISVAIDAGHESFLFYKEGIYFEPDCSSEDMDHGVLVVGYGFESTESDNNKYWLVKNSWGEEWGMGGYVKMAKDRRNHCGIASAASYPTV
Chain of Large T antigen (P03070 whole entry): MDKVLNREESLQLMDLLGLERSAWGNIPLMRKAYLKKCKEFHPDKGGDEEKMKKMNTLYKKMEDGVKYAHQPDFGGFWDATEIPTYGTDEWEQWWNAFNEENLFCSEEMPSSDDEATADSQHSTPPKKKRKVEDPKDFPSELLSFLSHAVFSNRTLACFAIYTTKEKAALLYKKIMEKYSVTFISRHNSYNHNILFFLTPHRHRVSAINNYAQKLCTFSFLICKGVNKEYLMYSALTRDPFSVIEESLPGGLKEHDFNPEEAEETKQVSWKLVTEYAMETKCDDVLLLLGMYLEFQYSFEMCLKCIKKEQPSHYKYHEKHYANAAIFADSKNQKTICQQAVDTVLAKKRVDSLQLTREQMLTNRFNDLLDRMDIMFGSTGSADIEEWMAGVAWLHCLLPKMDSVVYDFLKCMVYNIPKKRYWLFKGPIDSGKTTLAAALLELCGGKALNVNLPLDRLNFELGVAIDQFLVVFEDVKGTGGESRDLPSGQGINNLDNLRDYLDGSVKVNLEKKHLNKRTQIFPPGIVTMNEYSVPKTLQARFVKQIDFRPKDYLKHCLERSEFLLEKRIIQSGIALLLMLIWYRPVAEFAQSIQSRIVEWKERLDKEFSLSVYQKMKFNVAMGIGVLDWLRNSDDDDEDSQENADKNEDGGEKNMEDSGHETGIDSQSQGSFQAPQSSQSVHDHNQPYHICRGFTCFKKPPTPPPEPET

Cc1ccc2cc(/C=N/Nc3nc4ccccc4[nH]3)c(Cl)nc2c1
EC50 [1]: > 55.7 µM (not active) | EC50 [2]: > 55.7 µM (not active)

Cc1cccn2c(=O)c3cc(C(=O)NCCCn4ccnc4)n(C)c3nc12
EC50 [3]: > 10 µM (not active)

O=C1/C(=C/Nn2cnnc2)c2ccccc2C(=O)N1c1ccccc1
IC50 (Aspartyl aminopeptidase): 1.86 µM (active) | IC50 (Procathepsin L): > 59.6 µM (not active)

CC(C)C[C@@H](CC(=O)N[C@@H](CCCN)CC(=O)N[C@@H]1CCNC[C@H]1C(=O)N[C@H](CC(=O)N[C@@H](CCC(=O)O)CC(=O)O)Cc1c[nH]c2ccccc12)NC(=O)[C@@H]1CCCC[C@H]1N
AC50 (Cytochrome P450 2C9): 31.6 µM (inconclusive)

CCOC(=O)N1CCN(C(=O)c2ccc3c(=O)n(Cc4ccccc4)c(=S)[nH]c3c2)CC1
EC50 [3]: > 10 µM (not active)

C=C(C)C(O)/C=C/c1ccc(C)cc1 (configuration not stated)
AC50 (Cytochrome P450 2C9): 3.16 µM (inconclusive)

COC(=O)CN(n1cnnc1)S(=O)(=O)c1ccccc1Cl
IC50 (Aspartyl aminopeptidase): 0.381 µM (active) | IC50 (Procathepsin L): > 59.6 µM (not active)

CC1=C([N+](=O)[O-])C(c2ccccc2)C2=C(O)c3ccccc3C2=N1 (configuration not stated)
EC50 [4]: 4.95 µM (active) | EC50 [5]: < 0.1 µM (active) | EC50 [6]: > 12 µM (not active) | IC50 [7]: 58.8 µM (inactive) | EC50 (cells): > 12 µM (not active) | EC50 [8]: 4.09 µM (active) | EC50 [9]: 7.36 µM (active)

CN1CCC/C1=C/C=C1\SC(=S)NC1=O
AC50 [10]: > 20 µM (inactive) | IC50 (Large T antigen): 30.2 µM (active) | IC50 [11]: 13.4 µM (not active) | IC50 [12]: > 55.6 µM (not active) | IC50 (Insulin-degrading enzyme): 8.16 µM (active)
